In patent US7468391B2, “Methods for treating retinoid responsive disorders using selective inhibitors of CYP26A and CYP26B” (Allergan, Inc., priority 2003, dated 2008):

Legend:
RAR β [1] = target: T1, RAR β (Homo sapiens, UniProt P10826); test: RAR β Kd; assay type: binding; conditions: last item of cell EC50/(EFFICACY)/Kd
T1 sequence (P10826 1-455): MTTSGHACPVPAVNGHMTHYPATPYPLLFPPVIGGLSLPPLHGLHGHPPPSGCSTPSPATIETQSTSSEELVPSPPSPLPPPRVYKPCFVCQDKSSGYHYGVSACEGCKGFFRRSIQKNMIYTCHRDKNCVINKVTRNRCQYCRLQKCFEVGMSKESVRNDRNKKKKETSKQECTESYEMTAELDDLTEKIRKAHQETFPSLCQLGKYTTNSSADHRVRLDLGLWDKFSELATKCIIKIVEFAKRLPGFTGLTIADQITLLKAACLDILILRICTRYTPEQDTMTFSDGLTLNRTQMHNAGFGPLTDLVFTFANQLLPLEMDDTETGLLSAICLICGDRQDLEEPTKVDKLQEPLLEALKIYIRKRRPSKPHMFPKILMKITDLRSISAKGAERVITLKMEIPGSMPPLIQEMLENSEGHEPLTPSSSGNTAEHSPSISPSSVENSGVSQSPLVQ

RAR α = target: T2, RAR α (Homo sapiens, UniProt P10276); test: RAR α Kd; assay type: binding; conditions: last item of cell EC50/(EFFICACY)/Kd
T2 sequence (P10276 1-462): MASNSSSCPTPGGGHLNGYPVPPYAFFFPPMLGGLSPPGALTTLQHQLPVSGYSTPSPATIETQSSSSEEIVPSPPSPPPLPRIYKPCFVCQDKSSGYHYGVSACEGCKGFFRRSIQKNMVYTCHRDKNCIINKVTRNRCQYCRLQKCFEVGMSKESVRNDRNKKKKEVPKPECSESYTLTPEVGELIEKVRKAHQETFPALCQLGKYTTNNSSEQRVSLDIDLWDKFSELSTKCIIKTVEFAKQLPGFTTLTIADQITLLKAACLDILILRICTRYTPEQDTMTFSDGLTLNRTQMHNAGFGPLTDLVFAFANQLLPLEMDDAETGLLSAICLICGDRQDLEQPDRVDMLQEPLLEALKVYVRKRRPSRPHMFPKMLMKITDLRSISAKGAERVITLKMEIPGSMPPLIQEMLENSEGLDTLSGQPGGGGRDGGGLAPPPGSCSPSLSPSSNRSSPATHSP

RAR β [2] = target: T1, RAR β; test: RAR β EC50/(efficacy); assay type: cell-based; conditions: for RAR β (EFFICACY): value in brackets of cell EC50/(EFFICACY)/Kd
RAR γ [3] = target: T3, RAR γ (Homo sapiens, UniProt P13631); test: RAR γ Kd; assay type: binding; conditions: last item of cell EC50/(EFFICACY)/Kd
T3 sequence (P13631 1-454): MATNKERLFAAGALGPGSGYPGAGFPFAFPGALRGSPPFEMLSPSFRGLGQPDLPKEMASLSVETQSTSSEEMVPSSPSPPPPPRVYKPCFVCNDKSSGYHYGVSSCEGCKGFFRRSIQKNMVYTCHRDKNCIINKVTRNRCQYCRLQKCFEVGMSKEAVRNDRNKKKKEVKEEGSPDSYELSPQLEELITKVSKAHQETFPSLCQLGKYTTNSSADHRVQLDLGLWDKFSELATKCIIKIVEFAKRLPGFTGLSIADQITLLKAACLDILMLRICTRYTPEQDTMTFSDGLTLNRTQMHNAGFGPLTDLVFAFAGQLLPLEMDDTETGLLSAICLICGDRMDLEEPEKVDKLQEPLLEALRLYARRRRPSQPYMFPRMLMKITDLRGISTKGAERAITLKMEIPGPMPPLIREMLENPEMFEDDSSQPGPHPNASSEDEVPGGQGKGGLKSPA

CYP26A (P450RAI-1) = target: T4, CYP26A (P450RAI-1) (Homo sapiens, UniProt O43174); test: Cell-based inhibition of RA metabolism in CYP26A stably transfected HeLa cells; conditions: stably transfected HeLa cells, [3H]-RA, 3 hours at 37° C.; read-out: P450RAI-1 Whole cell IC50
T4 construct: expressed in transfected cells; host or cells: HeLa
T4 sequence (O43174 1-497): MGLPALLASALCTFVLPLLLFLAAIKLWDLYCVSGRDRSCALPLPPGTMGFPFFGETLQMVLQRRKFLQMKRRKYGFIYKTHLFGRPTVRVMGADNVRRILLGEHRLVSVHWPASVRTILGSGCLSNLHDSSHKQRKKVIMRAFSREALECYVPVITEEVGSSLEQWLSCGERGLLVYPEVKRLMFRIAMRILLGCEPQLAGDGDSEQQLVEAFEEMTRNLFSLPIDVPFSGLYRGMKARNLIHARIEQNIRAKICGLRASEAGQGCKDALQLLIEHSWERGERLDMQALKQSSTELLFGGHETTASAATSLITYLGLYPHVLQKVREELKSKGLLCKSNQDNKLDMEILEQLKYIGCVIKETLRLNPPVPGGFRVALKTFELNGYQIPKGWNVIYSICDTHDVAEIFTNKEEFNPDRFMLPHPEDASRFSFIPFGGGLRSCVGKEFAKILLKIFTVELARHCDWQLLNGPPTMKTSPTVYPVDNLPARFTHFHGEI
Outline: (§1)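 Stably transfected HeLa cells (5×10^5/well) in MEM with 10% FBS and 0.05 μCi [3H]-RA, compounds at 10, 1 or 0.1 μM final, 3 h at 37° C. Retinoids extracted by modified Bligh-Dyer (methylene chloride); aqueous radioactivity counted; ID50 for 50% inhibition of RA metabolism derived from log-transformed data.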

CYP26B (P450RAI-2) = target: T5, CYP26B (P450RAI-2) (Homo sapiens, UniProt Q9NR63); test: Cell-based inhibition of RA metabolism in CYP26B stably transfected HeLa cells; conditions: stably transfected HeLa cells, [3H]-RA, 3 hours at 37° C.; read-out: P450RAI-2 Whole cell IC50
T5 construct: expressed in transfected cells; host or cells: HeLa
T5 sequence (Q9NR63 1-512): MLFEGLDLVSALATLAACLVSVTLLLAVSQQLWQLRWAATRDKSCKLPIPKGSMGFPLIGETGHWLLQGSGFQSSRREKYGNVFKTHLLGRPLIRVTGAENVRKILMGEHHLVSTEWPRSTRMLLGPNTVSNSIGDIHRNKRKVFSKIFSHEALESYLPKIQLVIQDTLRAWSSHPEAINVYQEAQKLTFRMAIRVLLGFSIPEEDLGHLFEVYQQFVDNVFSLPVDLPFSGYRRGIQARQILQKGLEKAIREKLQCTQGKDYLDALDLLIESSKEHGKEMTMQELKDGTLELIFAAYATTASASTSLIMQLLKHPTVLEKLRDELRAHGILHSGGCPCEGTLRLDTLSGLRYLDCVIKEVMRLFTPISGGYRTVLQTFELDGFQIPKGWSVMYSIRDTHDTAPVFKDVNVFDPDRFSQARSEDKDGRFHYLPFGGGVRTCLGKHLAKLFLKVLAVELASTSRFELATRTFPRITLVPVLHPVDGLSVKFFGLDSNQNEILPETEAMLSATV
Outline: as §1

RAR γ [4] = target: T3, RAR γ; test: RAR γ EC50/(efficacy); assay type: cell-based; conditions: value in brackets of cell EC50/(EFFICACY)/Kd

CC(C(=O)O)c1ccc(C#Cc2cc(CN(C)C3CC3)c3c(c2)C(C)(C)CC(C)(C)O3)cc1 (stereo not shown) [Compound 8, 2-(4-{8-[(Cyclopropyl-methyl-amino)-methyl]-2,2,4,4-tetramethyl-chroman-6-ylethynyl}-phenyl)-propionic acid]
Kd (RAR β [1]): 4.8 µM | Kd (RAR α): 0.957 µM | RAR β (EFFICACY) (RAR β [2]): 15 | Kd (RAR γ [3]): > 10 µM | IC50 (CYP26A (P450RAI-1)): 0.05 µM | IC50 (CYP26B (P450RAI-2)): > 10 µM

CN(C1CC1)C1CCC(C)(C)c2cc(C#Cc3ccc(C(C)(C)C(=O)O)cc3)ccc21 (stereo not shown) [Compound 52, 2-{4-[5-(Cyclopropyl-methyl-amino)-8,8-dimethyl-5,6,7,8-tetrahydro-naphthalen-2-ylethynyl]-phenyl}-2-methyl-propionic acid]
Kd (RAR β [1]): > 10 µM | Kd (RAR α): > 10 µM | RAR β (EFFICACY) (RAR β [2]): < 5 | Kd (RAR γ [3]): > 10 µM | IC50 (CYP26A (P450RAI-1)): 0.4 µM | IC50 (CYP26B (P450RAI-2)): > 10 µM

COc1cc(C#Cc2ccc(CC(=O)O)c(F)c2)cc2c1C(N(C)C1CC1)CCC2(C)C (stereo not shown) [Compound 26, {4-[5-(Cyclopropyl-methyl-amino)-4-methoxy-8,8-dimethyl-5,6,7,8-tetrahydro-naphthalen-2-ylethynyl]-2-fluoro-phenyl}-acetic acid]
Kd (RAR β [1]): > 10 µM | Kd (RAR α): > 10 µM | RAR β (EFFICACY) (RAR β [2]): 25 | Kd (RAR γ [3]): 1.12 µM | IC50 (CYP26A (P450RAI-1)): 0.018 µM | IC50 (CYP26B (P450RAI-2)): 5 µM

CCOC(=O)C1=C(C)CC(C)(C)c2cc(C#Cc3ccc(CC(=O)O)cc3)ccc21 [Compound 58, 6-(4-Carboxymethyl-phenylethynyl)-2,4,4-trimethyl-3,4-dihydro-naphthalene-1-carboxylic acid ethyl ester]
Kd (RAR β [1]): 4.61 µM | Kd (RAR α): > 10 µM | RAR β (EFFICACY) (RAR β [2]): 25 | Kd (RAR γ [3]): > 10 µM | IC50 (CYP26A (P450RAI-1)): 3.5 µM | IC50 (CYP26B (P450RAI-2)): > 10 µM

CCOC(=O)c1cc(C#Cc2ccc(CC(=O)O)cc2)cc2c1C(N(C)C1CC1)CCC2(C)C (stereo not shown) [Compound 24, 3-(4-Carboxymethyl-phenylethynyl)-8-(cyclopropyl-methyl-amino)-5,5-dimethyl-5,6,7,8-tetrahydro-naphthalene-1-carboxylic acid ethyl ester]
Kd (RAR β [1]): 7.19 µM | Kd (RAR α): 8.57 µM | RAR β (EFFICACY) (RAR β [2]): 30 | Kd (RAR γ [3]): 7.75 µM | IC50 (CYP26A (P450RAI-1)): 0.035 µM | IC50 (CYP26B (P450RAI-2)): 5 µM

C/C(=C\c1ccc(C#Cc2cccc(CN(C)C3CC3)c2)cc1)C(=O)O [Compound 33, 3-(4-{3-[(Cyclopropyl-methyl-amino)-methyl]-phenylethynyl}-phenyl)-2-methyl-acrylic acid]
Kd (RAR α): 3.25 µM | RAR β (EFFICACY) (RAR β [2]): 30 | Kd (RAR γ [3]): > 10 µM | RAR γ (EFFICACY) (RAR γ [4]): 10 | IC50 (CYP26A (P450RAI-1)): > 10 µM | IC50 (CYP26B (P450RAI-2)): 1 µM

CN(C1CC1)C1CCC(C)(C)c2cc(C#Cc3ccc(/C=C/C(=O)O)cc3)cc(C3CC3)c21 (stereo not shown) [Compound 48, 3-{4-[4-Cyclopropyl-5-(cyclopropyl-methyl-amino)-8,8-dimethyl-5,6,7,8-tetrahydro-naphthalen-2-ylethynyl]-phenyl}-acrylic acid]
RAR β (EFFICACY) (RAR β [2]): 40 | RAR γ (EFFICACY) (RAR γ [4]): 25 | IC50 (CYP26A (P450RAI-1)): 0.7 µM

Cc1ccc(CN(C)C2CC2)cc1C#Cc1ccc(/C=C/C(=O)O)cc1 [Compound 34, (E)-3-(4-{5-[(Cyclopropyl-methyl-amino)-methyl]-2-methyl-phenylethynyl}-phenyl)-acrylic acid]
Kd (RAR β [1]): 3.49 µM | Kd (RAR α): 5.65 µM | RAR β (EFFICACY) (RAR β [2]): 20 | Kd (RAR γ [3]): 8.53 µM | IC50 (CYP26A (P450RAI-1)): > 10 µM | IC50 (CYP26B (P450RAI-2)): 0.12 µM

CC1(C)CC(C)(C)c2cc(C#Cc3ccc(CC(=O)O)c(F)c3)cc(O)c2O1 [Compound 10, [2-Fluoro-4-(8-hydroxy-2,2,4,4-tetramethyl-chroman-6-ylethynyl)-phenyl]-acetic acid]
Kd (RAR β [1]): > 10 µM | Kd (RAR α): > 10 µM | RAR β (EFFICACY) (RAR β [2]): 15 | Kd (RAR γ [3]): > 10 µM | IC50 (CYP26A (P450RAI-1)): 0.07 µM | IC50 (CYP26B (P450RAI-2)): 0.7 µM

CC(C)Oc1cc(C#Cc2ccc(CC(=O)O)cc2)cc2c1C(N(C)C1CC1)CCC2(C)C (stereo not shown) [Compound 41, {4-[5-(Cyclopropyl-methyl-amino)-4-isopropoxy-8,8-dimethyl-5,6,7,8-tetrahydro-naphthalen-2-ylethynyl]-phenyl}-acetic acid]
Kd (RAR β [1]): > 10 µM | Kd (RAR α): > 10 µM | Kd (RAR γ [3]): > 10 µM | RAR γ (EFFICACY) (RAR γ [4]): 30 | IC50 (CYP26A (P450RAI-1)): 0.016 µM | IC50 (CYP26B (P450RAI-2)): > 10 µM

CN(Cc1cccc(C#Cc2ccc(/C=C/C(=O)O)cc2)c1)C1CC1 [Compound 31, (E)-3-(4-{3-[(Cyclopropyl-methyl-amino)-methyl]-phenylethynyl}-phenyl)-acrylic acid]
Kd (RAR β [1]): > 10 µM | Kd (RAR α): > 10 µM | RAR β (EFFICACY) (RAR β [2]): 25 | Kd (RAR γ [3]): > 10 µM | IC50 (CYP26A (P450RAI-1)): > 10 µM | IC50 (CYP26B (P450RAI-2)): 0.6 µM

C#Cc1cc(NC(=O)Nc2ccc(C(=O)O)c(F)c2)cc2c1OC(C)(C)CC2(C)C [Compound 63, 4-[3-(8-Ethynyl-2,2,4,4-tetramethyl-chroman-6-yl)-ureido]-2-fluoro-benzoic acid]
Kd (RAR β [1]): 11 µM | Kd (RAR α): > 100 µM | EC50 (RAR β [2]; first item of cell EC50/(EFFICACY)/Kd): 0.853 µM | RAR β (EFFICACY) (RAR β [2]): 37 | Kd (RAR γ [3]): > 100 µM | IC50 (CYP26A (P450RAI-1)): > 10 µM | IC50 (CYP26B (P450RAI-2)): 0.68 µM

C=Cc1cc(C#Cc2ccc(CC(=O)O)cc2)cc2c1C(=O)CCC2(C)C [Compound 22, [4-(8,8-Dimethyl-5-oxo-4-vinyl-5,6,7,8-tetrahydro-naphthalen-2-ylethynyl)-phenyl]-acetic acid]
Kd (RAR β [1]): > 10 µM | Kd (RAR α): > 10 µM | RAR β (EFFICACY) (RAR β [2]): 15 | Kd (RAR γ [3]): > 10 µM | IC50 (CYP26A (P450RAI-1)): 0.007 µM | IC50 (CYP26B (P450RAI-2)): 0.2 µM
